Measurements: patent US8772323B2, “Benzoxazole- and tetrahydrobenzoxazole-substituted pyridazinones as GPR119 agonists” (Boehringer Ingelheim International GmbH, priority 2010, dated 2014)
Structures can show the parent of a compound that is named as a salt.

Molecular target: human GPR119 (Homo sapiens (Human), UniProt Q8TDV5)
Experiment: AlphaScreen cAMP assay in Min-6/hGPR119 cells (GPR119 activation, intracellular cAMP)
Format: cell-based
Conditions: MIN6 cells stably transfected with human GPR119; 45 minutes' incubation at RT; AlphaScreen cAMP Assay Kit
Protocol: The compounds of formula I according to the invention are GPR119 agonists. The effect of the compounds on the activation of GPR119 and on the stimulation of intracellular cAMP concentration is determined using the AlphaScreen cAMP Assay Kit (Cat. No. #6760625R) made by PerkinElmer.
MIN6 cells [Miyazaki J et al. Endocrinology. 1990 July; 127(1):126-32] were stably transfected with an expression vector for human GPR119 cDNA (Acc. No. NP_848566). Min-6/hGPR119 cells are cultured in DMEM, 10% FBS, 50 μM β-mercaptoethanol, 0.3 mg/mL Geniticin, 2 mM GlutaMAX at 37° C. 5% CO2. For the assay, the cells are placed in Optiplates (white, 384-well, 160W-barcoded, TC, sterile with lid, Cat. No. #6007688 (Perkin Elmer); 10000 cells/well; 50 μl). The plates covered with lids are then incubated for 24 hours at 37° C./5% CO2.
After the medium has been sucked out of the wells completely, 10 μl of the test compound are added, the compounds are diluted beforehand with stimulating buffer (140 mM NaCl, 3.6 mM KCl, 0.5 mM NaH2PO4, 0.5 mM MgSO4, 1.5 mM CaCl2, 10 mM Hepes, 5 mM NaHCO3; pH 7.4. 0.5 mM IBMX and 0.1% BSA, the final DMSO concentration is 1%). After 45 minutes' incubation at RT, the cAMP concentrations are determined using the AlphaScreen cAMP Assay Kit (Cat. No. #6760625R from PerkinElmer).

human GPR119, sequence (Q8TDV5 whole entry): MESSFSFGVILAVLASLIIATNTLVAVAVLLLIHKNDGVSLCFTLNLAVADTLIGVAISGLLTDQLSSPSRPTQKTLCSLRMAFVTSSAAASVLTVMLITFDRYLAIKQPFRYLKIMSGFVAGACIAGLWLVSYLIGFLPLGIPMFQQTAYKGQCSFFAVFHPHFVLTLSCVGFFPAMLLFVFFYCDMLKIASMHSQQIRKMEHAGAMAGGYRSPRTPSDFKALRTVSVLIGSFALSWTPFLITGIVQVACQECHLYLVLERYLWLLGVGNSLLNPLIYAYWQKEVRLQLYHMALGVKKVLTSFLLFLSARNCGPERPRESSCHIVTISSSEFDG

Row | EC50 [nM] | Compound
1 | 1520 | CCC1CC(=O)NN=C1c1ccc2nc(-c3ccc(OCC(=O)N(C)C)cc3)oc2c1 (centres unmarked) [Example 41, 2-{4-[6-(4-ethyl-6-oxo-1,4,5,6-tetrahydro-pyridazin-3-yl)-benzoxazol-2-yl]-phenoxy}-N,N-dimethyl-acetamide]
2 | 4180 | CCC1CC(=O)NN=C1c1ccc2nc(-c3ccc(OCc4cncn4C)cc3)oc2c1 (centres unmarked) [Example 42, 5-ethyl-6-{2-[4-(3-methyl-3H-imidazol-4-ylmethoxy)-phenyl]-benzoxazol-6-yl}-4,5-dihydro-2H-pyridazin-3-one]
3 | 1080 | CCC1CC(=O)NN=C1c1ccc2nc(-c3ccc(OCC(=O)NC)cc3)oc2c1 (centres unmarked) [Example 43, 2-{4-[6-(4-ethyl-6-oxo-1,4,5,6-tetrahydro-pyridazin-3-yl)-benzoxazol-2-yl]-phenoxy}-N-methyl-acetamide]
4 | 1090 | CCC1CC(=O)NN=C1c1ccc2nc(-c3ccc(OCCN4CCN(C)CC4)cc3)oc2c1 (centres unmarked) [Example 44, 5-ethyl-6-(2-{4-[2-(4-methyl-piperazin-1-yl)-ethoxy]-phenyl}-benzoxazol-6-yl)-4,5-dihydro-2H-pyridazin-3-one dihydrochloride]
5 | 807 | CCC1CC(=O)NN=C1c1ccc2nc(-c3cccc(OCc4cccnc4)c3)oc2c1 (centres unmarked) [Example 45, 5-ethyl-6-{2-[3-(pyridin-3-ylmethoxy)-phenyl]-benzoxazol-6-yl}-4,5-dihydro-2H-pyridazin-3-one]
6 | 345 | CCC1CC(=O)NN=C1c1ccc2nc(-c3ccc(OCc4ccncc4)cc3)oc2c1 (centres unmarked) [Example 46, 5-ethyl-6-{2-[4-(pyridin-4-ylmethoxy)-phenyl]-benzoxazol-6-yl}-4,5-dihydro-2H-pyridazin-3-one]
7 | 226 | CCC1CC(=O)NN=C1c1ccc2nc(-c3ccc(OCc4ccccn4)cc3)oc2c1 (centres unmarked) [Example 47, 5-ethyl-6-{2-[4-(pyridin-2-ylmethoxy)-phenyl]-benzoxazol-6-yl}-4,5-dihydro-2H-pyridazin-3-one]
8 | 348 | CCC1CC(=O)NN=C1c1ccc2nc(-c3ccc(OCc4ccsc4)cc3)oc2c1 (centres unmarked) [Example 48, 5-ethyl-6-{2-[4-(thiophen-3-ylmethoxy)-phenyl]-benzoxazol-6-yl}-4,5-dihydro-2H-pyridazin-3-one]
9 | 114 | CCC1CC(=O)NN=C1c1ccc2nc(-c3ccc(OCCN4CCCCC4)cc3)oc2c1 (centres unmarked) [Example 49, 5-ethyl-6-{2-[4-(2-piperidin-1-yl-ethoxy)-phenyl]-benzoxazol-6-yl}-4,5-dihydro-2H-pyridazin-3-one]
10 | 223 | CCC1CC(=O)NN=C1c1ccc2nc(-c3ccc(OCc4nc(C(C)C)no4)cc3)oc2c1 (centres unmarked) [Example 50, 5-ethyl-6-{2-[4-(3-isopropyl-[1,2,4]oxadiazol-5-ylmethoxy)-phenyl]-benzoxazol-6-yl}-4,5-dihydro-2H-pyridazin-3-one]
11 | 158 | CCC1CC(=O)NN=C1c1ccc2nc(-c3ccc(OCc4cccs4)cc3)oc2c1 (centres unmarked) [Example 51, 5-ethyl-6-{2-[4-(thiophen-2-ylmethoxy)-phenyl]-benzoxazol-6-yl}-4,5-dihydro-2H-pyridazin-3-one]
12 | 189 | CCCOc1ccc(-c2nc3ccc(C4=NNC(=O)CC4CC)cc3o2)cc1 (centres unmarked) [Example 52, 5-ethyl-6-[2-(4-propoxy-phenyl)-benzoxazol-6-yl]-4,5-dihydro-2H-pyridazin-3-one]
13 | 205 | CCC1CC(=O)NN=C1c1ccc2nc(-c3ccc(OCCN4CCCCCC4)cc3)oc2c1 (centres unmarked) [Example 53, 6-{2-[4-(2-azepan-1-yl-ethoxy)-phenyl]-benzoxazol-6-yl}-5-ethyl-4,5-dihydro-2H-pyridazin-3-one]
14 | 145 | CCC1CC(=O)NN=C1c1ccc2nc(-c3ccc(OCC4CCCCC4)cc3)oc2c1 (centres unmarked) [Example 54, 6-[2-(4-cyclohexylmethoxy-phenyl)-benzoxazol-6-yl]-5-ethyl-4,5-dihydro-2H-pyridazin-3-one]
15 | 486 | CCC1CC(=O)NN=C1c1ccc2nc(-c3ccc(OCCN(C)C)cc3)oc2c1 (centres unmarked) [Example 55, 6-{2-[4-(2-dimethylamino-ethoxy)-phenyl]-benzoxazol-6-yl}-5-ethyl-4,5-dihydro-2H-pyridazin-3-one]
16 | 170 | CCC1CC(=O)NN=C1c1ccc2nc(-c3ccc(OCCC4CCCCC4)cc3)oc2c1 (centres unmarked) [Example 56, 6-{2-[4-(2-cyclohexyl-ethoxy)-phenyl]-benzoxazol-6-yl}-5-ethyl-4,5-dihydro-2H-pyridazin-3-one]

Row | EC50 [nM] | Compound
17 | 37 | CCC1CC(=O)NN=C1c1ccc2nc(-c3ccc(OCCN(C(C)C)C(C)C)cc3)oc2c1 (centres unmarked) [Example 57, 6-{2-[4-(2-diisopropylamino-ethoxy)-phenyl]-benzoxazol-6-yl}-5-ethyl-4,5-dihydro-2H-pyridazin-3-one]
18 | 76 | CCC1CC(=O)NN=C1c1ccc2nc(-c3ccc(OCCN4C(C)(C)CCCC4(C)C)cc3)oc2c1 (centres unmarked) [Example 58, 5-ethyl-6-(2-{4-[2-(2,2,6,6-tetramethyl-piperidin-1-yl)-ethoxy]-phenyl}-benzoxazol-6-yl)-4,5-dihydro-2H-pyridazin-3-one]
19 | 1590 | CCC1CC(=O)NN=C1c1ccc2nc(-c3ccc(OCc4cncnc4)cc3)oc2c1 (centres unmarked) [Example 59, 5-ethyl-6-{2-[4-(pyrimidin-5-ylmethoxy)-phenyl]-benzoxazol-6-yl}-4,5-dihydro-2H-pyridazin-3-one]
20 | 639 | CCC1CC(=O)NN=C1c1ccc2nc(-c3ccc(OCc4cccnc4)cc3)oc2c1 (centres unmarked) [Example 60, 5-ethyl-6-{2-[4-(pyridin-3-ylmethoxy)-phenyl]-benzoxazol-6-yl}-4,5-dihydro-2H-pyridazin-3-one]
21 | 342 | CCC1CC(=O)NN=C1c1ccc2nc(-c3ccc(OCC(=O)N4CCCCC4)cc3)oc2c1 (centres unmarked) [Example 61, 5-ethyl-6-{2-[4-(2-oxo-2-piperidin-1-yl-ethoxy)-phenyl]-benzoxazol-6-yl}-4,5-dihydro-2H-pyridazin-3-one]
22 | 552 | CCC1CC(=O)NN=C1c1ccc2nc(-c3ccc(OCCCN(C)C)cc3)oc2c1 (centres unmarked) [Example 62, 6-{2-[4-(3-dimethylamino-propoxy)-phenyl]-benzoxazol-6-yl}-5-ethyl-4,5-dihydro-2H-pyridazin-3-one]
23 | 324 | CCC1CC(=O)NN=C1c1ccc2nc(-c3ccc(OCc4cnco4)cc3)oc2c1 (centres unmarked) [Example 63, 5-ethyl-6-{2-[4-(oxazol-5-ylmethoxy)-phenyl]-benzoxazol-6-yl}-4,5-dihydro-2H-pyridazin-3-one]
24 | 237 | CCC1CC(=O)NN=C1c1ccc2nc(-c3ccc(OCCN4CCOCC4)cc3)oc2c1 (centres unmarked) [Example 64, 5-ethyl-6-{2-[4-(2-morpholin-4-yl-ethoxy)-phenyl]-benzoxazol-6-yl}-4,5-dihydro-2H-pyridazin-3-one]
25 | 426 | CCC1CC(=O)NN=C1c1ccc2nc(-c3cccc(OCc4ccccn4)c3)oc2c1 (centres unmarked) [Example 65, 5-ethyl-6-{2-[3-(pyridin-2-ylmethoxy)-phenyl]-benzoxazol-6-yl}-4,5-dihydro-2H-pyridazin-3-one]
26 | 112 | CCC1CC(=O)NN=C1c1ccc2nc(-c3ccc(OCC(=O)OC(C)(C)C)cc3)oc2c1 (centres unmarked) [Example 66, tert-butyl {4-[6-(4-ethyl-6-oxo-1,4,5,6-tetrahydro-pyridazin-3-yl)-benzoxazol-2-yl]-phenoxy}-acetate]
27 | 51 | CCC1CC(=O)NN=C1c1ccc2nc(-c3ccc(OCC4CCN(C(=O)OC(C)(C)C)CC4)cc3)oc2c1 (centres unmarked) [Example 67, tert-butyl 4-{4-[6-(4-ethyl-6-oxo-1,4,5,6-tetrahydro-pyridazin-3-yl)-benzoxazol-2-yl]-phenoxymethyl}-piperidine-1-carboxylate]
28 | 60 | CCC1CC(=O)NN=C1c1ccc2nc(-c3ccc(OC4CCN(C(=O)OC(C)(C)C)CC4)cc3)oc2c1 (centres unmarked) [Example 68, tert-butyl 4-{4-[6-(4-ethyl-6-oxo-1,4,5,6-tetrahydro-pyridazin-3-yl)-benzoxazol-2-yl]-phenoxy}-piperidin-1-carboxylate]
29 | 143 | CC1CC(=O)NN=C1c1ccc2nc(-c3cccc(OCC4CCN(C(=O)OC(C)(C)C)CC4)c3)oc2c1 (centres unmarked) [Example 69, tert-butyl 4-{3-[6-(4-methyl-6-oxo-1,4,5,6-tetrahydro-pyridazin-3-yl)-benzoxazol-2-yl]-phenoxymethyl}-piperidin-1-carboxylate]
30 | 3910 | CCC1CC(=O)NN=C1c1ccc2nc(-c3ccc(OCC(=O)O)cc3)oc2c1 (centres unmarked) [Example 70, 4-[6-(4-ethyl-6-oxo-1,4,5,6-tetrahydro-pyridazin-3-yl)-benzoxazol-2-yl]-phenoxy-acetic acid]
31 | > 10000 | CCC1CC(=O)NN=C1c1ccc2nc(-c3ccc(OCC4CCNCC4)cc3)oc2c1 (centres unmarked) [Example 71, 4-{4-[6-(4-ethyl-6-oxo-1,4,5,6-tetrahydro-pyridazin-3-yl)-benzoxazol-2-yl]-phenoxymethyl}-piperidine as hydrochloride]
32 | 1810 | CCC1CC(=O)NN=C1c1ccc2nc(-c3ccc(OC4CCNCC4)cc3)oc2c1 (centres unmarked) [Example 72, 5-ethyl-6-{2-[4-(piperidin-4-yloxy)-phenyl]-benzoxazol-6-yl}-4,5-dihydro-2H-pyridazin-3-one hydrochloride]
